In PubChem BioAssay AID1259407 (Chemical Carcinogenesis Research Information System (CCRIS), 2018):
The source made the active and inactive calls. How the calls were made is not given here. Where a SMILES comes first, the peptide text is derived from it.

System: CCRIS mutagenicity, Ames/micronucleus/aberration tests
Assay: CCRIS mutagenicity studies

CI
mutagenic call (Test System: AMES SALMONELLA TYPHIMURIUM, Strain/Indicator: TA98, Metabolic Activation: NONE, Method: GAS EXPOSURE): inactive; negative
mutagenic call (Test System: AMES SALMONELLA TYPHIMURIUM, Strain/Indicator: TA98, Metabolic Activation: RAT, LIVER, S-9, PHENOBARBITAL AND BETA--NAPHTHOFLAVONE, Method: GAS EXPOSURE): inactive; negative
mutagenic call (Test System: AMES SALMONELLA TYPHIMURIUM, Strain/Indicator: TA100, Metabolic Activation: NONE, Method: DESICCATOR): active; positive
mutagenic call (Test System: AMES SALMONELLA TYPHIMURIUM, Strain/Indicator: TA100, Metabolic Activation: NONE, Method: GAS EXPOSURE): active; positive
mutagenic call (Test System: AMES SALMONELLA TYPHIMURIUM, Strain/Indicator: TA100, Metabolic Activation: RAT, LIVER, S-9, PHENOBARBITAL AND BETA--NAPHTHOFLAVONE, Method: GAS EXPOSURE): active; positive
mutagenic call (Test System: AMES SALMONELLA TYPHIMURIUM, Strain/Indicator: TA1535, Metabolic Activation: NONE, Method: GAS EXPOSURE): inactive; negative
mutagenic call (Test System: AMES SALMONELLA TYPHIMURIUM, Strain/Indicator: TA1535, Metabolic Activation: RAT, LIVER, S-9, PHENOBARBITAL AND BETA--NAPHTHOFLAVONE, Method: GAS EXPOSURE): inactive; negative
mutagenic call (Test System: AMES SALMONELLA TYPHIMURIUM, Strain/Indicator: TA1535, Metabolic Activation: RAT, LIVER, S-9, Method: SPOT): active; positive
mutagenic call (Test System: AMES SALMONELLA TYPHIMURIUM, Strain/Indicator: TA1537, Metabolic Activation: NONE, Method: GAS EXPOSURE): inactive; negative
mutagenic call (Test System: AMES SALMONELLA TYPHIMURIUM, Strain/Indicator: TA1537, Metabolic Activation: RAT, LIVER, S-9, PHENOBARBITAL AND BETA--NAPHTHOFLAVONE, Method: GAS EXPOSURE): inactive; negative
mutagenic call (Test System: E. COLI, Strain/Indicator: WP2UVRA, Metabolic Activation: NONE, Method: GAS EXPOSURE): inactive; negative
mutagenic call (Test System: E. COLI, Strain/Indicator: WP2UVRA, Metabolic Activation: RAT, LIVER, S-9, PHENOBARBITAL AND BETA--NAPHTHOFLAVONE, Method: GAS EXPOSURE): inactive; negative
mutagenic call (Test System: MOUSE LYMPHOMA, Strain/Indicator: L5178Y (TK+/TK-), Metabolic Activation: NONE, Method: SUSPENSION/PLATE): active; positive
mutagenic call (Test System: MOUSE LYMPHOMA, Strain/Indicator: L5178Y (TK+/TK-), Metabolic Activation: RAT, LIVER, S-9, AROCLOR 1254, Method: SUSPENSION/PLATE): active; positive

COC(=O)[C@H](Cc1ccccc1)NC(=O)[C@@H](N)CC(=O)O (H-Asp-Phe-OMe)
mutagenic call (End Point: In vivo micronucleus, Test System: Bone marrow polychromatic erythrocytes, Species: Rat, Strain/Sex: F344/N, Male, Route: Oral): inactive; negative
mutagenic call (End Point: In vivo micronucleus, Test System: Peripheral blood normochromatic erythrocytes, Species: Mouse, Strain/Sex: B6.129-Cdkn2atm1Rdp (N2) Cdkn2a deficient/Female, Route: Oral): inactive; negative
mutagenic call (End Point: In vivo micronucleus, Test System: Peripheral blood normochromatic erythrocytes, Species: Mouse, Strain/Sex: B6.129-Cdkn2atm1Rdp (N2) Cdkn2a deficient/Male, Route: Oral): inactive; negative
mutagenic call (End Point: In vivo micronucleus, Test System: Peripheral blood normochromatic erythrocytes, Species: Mouse, Strain/Sex: B6.129-Trp53tm1Brd (N5) p53 Haploinsufficient/Female, Route: Oral): active; positive (significant trend test and significant (p=0.0004) increase in frequenc
mutagenic call (End Point: In vivo micronucleus, Test System: Peripheral blood normochromatic erythrocytes, Species: Mouse, Strain/Sex: B6.129-Trp53tm1Brd (N5) p53 Haploinsufficient/Male, Route: Oral): inactive; negative
mutagenic call (End Point: In vivo micronucleus, Test System: Peripheral blood normochromatic erythrocytes, Species: Mouse, Strain/Sex: FVB Tg.Ac hemizygous/Female, Route: Oral): inactive; negative
mutagenic call (End Point: In vivo micronucleus, Test System: Peripheral blood normochromatic erythrocytes, Species: Mouse, Strain/Sex: FVB Tg.Ac hemizygous/Male, Route: Oral): inactive; negative
mutagenic call (Test System: Ames Salmonella typhimurium, Strain/Indicator: TA97, Metabolic Activation: Hamster, liver, S-9, Aroclor 1254, 10 and 30%, Method: Preincubation): inactive; negative
mutagenic call (Test System: Ames Salmonella typhimurium, Strain/Indicator: TA97, Metabolic Activation: None, Method: Preincubation): inactive; negative
mutagenic call (Test System: Ames Salmonella typhimurium, Strain/Indicator: TA97, Metabolic Activation: Rat, liver, S-9, Aroclor 1254 (10% or 30%), Method: Preincubation): active; positive in two trials with 30% s-9
mutagenic call (Test System: Ames Salmonella typhimurium, Strain/Indicator: TA98, Metabolic Activation: Hamster, liver, S-9, Aroclor 1254, 10 and 30%, Method: Preincubation): inactive; negative
mutagenic call (Test System: Ames Salmonella typhimurium, Strain/Indicator: TA98, Metabolic Activation: None, Method: Preincubation): inactive; negative
mutagenic call (Test System: Ames Salmonella typhimurium, Strain/Indicator: TA98, Metabolic Activation: Rat, liver, S-9, Aroclor 1254, 10 and 30%, Method: Preincubation): inactive; negative
mutagenic call (Test System: Ames Salmonella typhimurium, Strain/Indicator: TA100, Metabolic Activation: Hamster, liver, S-9, Aroclor 1254, 10 and 30%, Method: Preincubation): inactive; negative
mutagenic call (Test System: Ames Salmonella typhimurium, Strain/Indicator: TA100, Metabolic Activation: None, Method: Preincubation): inactive; negative
mutagenic call (Test System: Ames Salmonella typhimurium, Strain/Indicator: TA100, Metabolic Activation: Rat, liver, S-9, Aroclor 1254, 10 and 30%, Method: Preincubation): inactive; negative
mutagenic call (Test System: Ames Salmonella typhimurium, Strain/Indicator: TA1535, Metabolic Activation: Hamster, Liver, S-9, Aroclor 1254, 10 and 30%, Method: Preincubation): inactive; negative
mutagenic call (Test System: Ames Salmonella typhimurium, Strain/Indicator: TA1535, Metabolic Activation: None, Method: Preincubation): inactive; negative
mutagenic call (Test System: Ames Salmonella typhimurium, Strain/Indicator: TA1535, Metabolic Activation: Rat, liver, S-9, Aroclor 1254, 10 and 30%, Method: Preincubation): inactive; negative
mutagenic call (Test System: Ames Salmonella typhimurium, Strain/Indicator: TA1537, Metabolic Activation: Rat, liver, S-9, Aroclor 1254, 30%, Method: Preincubation): inactive; negative

C1CNCCN1
mutagenic call (Test System: AMES SALMONELLA TYPHIMURIUM, Strain/Indicator: TA98, Metabolic Activation: HAMSTER, LIVER, S-9, AROCLOR 1254, Method: PREINCUBATION): inactive; negative
mutagenic call (Test System: AMES SALMONELLA TYPHIMURIUM, Strain/Indicator: TA98, Metabolic Activation: NONE, Method: PREINCUBATION): inactive; negative
mutagenic call (Test System: AMES SALMONELLA TYPHIMURIUM, Strain/Indicator: TA98, Metabolic Activation: RAT, LIVER, S-9, AROCLOR 1254, Method: PREINCUBATION): inactive; negative
mutagenic call (Test System: AMES SALMONELLA TYPHIMURIUM, Strain/Indicator: TA98, Metabolic Activation: RAT, LIVER, S-9, PCB, Method: PREINCUBATION): inactive; negative
mutagenic call (Test System: AMES SALMONELLA TYPHIMURIUM, Strain/Indicator: TA100, Metabolic Activation: HAMSTER, LIVER, S-9, AROCLOR 1254, Method: PREINCUBATION): inactive; negative
mutagenic call (Test System: AMES SALMONELLA TYPHIMURIUM, Strain/Indicator: TA100, Metabolic Activation: NONE, Method: PREINCUBATION): inactive; negative
mutagenic call (Test System: AMES SALMONELLA TYPHIMURIUM, Strain/Indicator: TA100, Metabolic Activation: RAT, LIVER, S-9, AROCLOR 1254, Method: PREINCUBATION): inactive; negative
mutagenic call (Test System: AMES SALMONELLA TYPHIMURIUM, Strain/Indicator: TA100, Metabolic Activation: RAT, LIVER, S-9, PCB, Method: PREINCUBATION): inactive; negative
mutagenic call (Test System: AMES SALMONELLA TYPHIMURIUM, Strain/Indicator: TA1535, Metabolic Activation: HAMSTER, LIVER, S-9, AROCLOR 1254, Method: PREINCUBATION): inactive; negative
mutagenic call (Test System: AMES SALMONELLA TYPHIMURIUM, Strain/Indicator: TA1535, Metabolic Activation: NONE, Method: PREINCUBATION): inactive; negative
mutagenic call (Test System: AMES SALMONELLA TYPHIMURIUM, Strain/Indicator: TA1535, Metabolic Activation: RAT, LIVER, S-9, AROCLOR 1254, Method: PREINCUBATION): inactive; negative
mutagenic call (Test System: AMES SALMONELLA TYPHIMURIUM, Strain/Indicator: TA1537, Metabolic Activation: HAMSTER, LIVER, S-9, AROCLOR 1254, Method: PREINCUBATION): inactive; negative
mutagenic call (Test System: AMES SALMONELLA TYPHIMURIUM, Strain/Indicator: TA1537, Metabolic Activation: NONE, Method: PREINCUBATION): inactive; negative
mutagenic call (Test System: AMES SALMONELLA TYPHIMURIUM, Strain/Indicator: TA1537, Metabolic Activation: RAT, LIVER, S-9, AROCLOR 1254, Method: PREINCUBATION): inactive; negative
